The values that follow come from article PMC11803614 (2025).

Structures are written as SMILES.

Common to all, as to assay: electrochemical aptamer-based sensor, square-wave voltammetry titration (KDM)
The test system of assay [1] is vanc-28 (DNA, aptamer) GCGAGGGTACCGCTTAAAGTGGGTCGGC
The conditions noted are these: PBS (ion concentrations not given), room temperature, 0% carboxylate (6-mercaptohexanol) SAM, immobilised aptamer.

The subject of assay [2] is vanc-45 (also printed vanc-48) (DNA, aptamer) CGAGGGTACCGCAATAGTACTTATTGTTCGCCTATTGTGGGTCGG
The conditions noted are these: PBS (ion concentrations not given), room temperature, 0% carboxylate (6-mercaptohexanol) SAM, immobilised aptamer.

The test system of assay [3] is procaine (DNA, aptamer) AGACAAGGAAAATCCTTCAACGAAGTGGGTCG
The conditions noted are these: undiluted bovine blood, room temperature and 37 °C; 0% carboxylate SAM; no Kd, upper plateau not reached.

In assay [4] the test system is tryptophan (DNA, aptamer) CCGGTGGTGTAGTTCCGGCGTGGGGAAGG
The conditions noted are these: PBS (ion concentrations not given), room temperature, 0% carboxylate SAM, immobilised aptamer, biphasic, higher affinity event.

In the case of `CN[C@H](CC(C)C)C(=O)N[C@H]1C(=O)N[C@@H](CC(N)=O)C(=O)N[C@H]2C(=O)N[C@H]3C(=O)N[C@H](C(=O)N[C@H](C(=O)O)c4cc(O)cc(O)c4-c4cc3ccc4O)[C@H](O)c3ccc(c(Cl)c3)Oc3cc2cc(c3O[C@@H]2O[C@H](CO)[C@@H](O)[C@H](O)[C@H]2O[C@H]2C[C@](C)(N)[C@H](O)[C@H](C)O2)Oc2ccc(cc2Cl)[C@H]1O`, the results for the Kd in assay [1] and in assay [2] were 0.6 ± 0.1 µM and 15.2 ± 0.4 µM, respectively. On to `CCN(CC)CCOC(=O)c1ccc(N)cc1`, for which the binding entry in assay [3] is recorded as “yes”.

With `N[C@@H](Cc1c[nH]c2ccccc12)C(=O)O`, the Kd in assay [4] was 13.0 ± 1.4 µM.
